pIC50: −log10 of the molar value.
Key:
[1] = molecular target: FLAP (human ALOX5AP expressed in COS-7 cell membranes) (Homo sapiens (Human), UniProt P20292); test: FLAP Binding Assay (Test A), competition binding with 3H-MK591 as tracer; conditions: competition with 3H-MK591 (2 nM), membranes from COS-7 cells expressing human ALOX5AP, 60 min at rt
Experimental: FLAP Binding Assay (Test A) Compounds were tested in a competition binding assay using ^3H-MK591 as tracer. […] Med. Chem. […] A 100,000×g pellet from COS-7 cells stably transfected with a plasmid expressing human ALOX5AP was the source of FLAP. […] Following filtration, filter plates were dried 12 h at RT (or 50° C. for 1 hour). 50 μL scintillant was then added, the filterplates were sealed and radioactivity was measured in a microbeta counter. Specific binding was defined as total binding minus non-specific binding. Total binding was defined as ^3H-MK591 bound to membranes in the absence of competitor, non-specific binding was defined as ^3H-MK591 in the presence of 0.1 mM MK-591. IC50 values were determined by plotting % inhibition versus log compound concentration and using a one site dose response model.

[2] = system: LTB4 production in fresh human whole blood; test: FLAP Whole Blood Assay (Test B), inhibition of LTB4 production; assay type: cell-based; conditions: method B: compound incubated with human whole blood at 37° C. for 4 h, then calcium ionophore A23187; LTB4 by EIA; read-out: IC50 nM (method B)
Experimental: FLAP Whole Blood Assay (Test B)
Compounds were tested for the inhibition of LTB4 production in fresh human whole blood obtained by venapuncture using heparin to prevent clotting. 1.5 μL compounds or DMSO carrier were dispensed into the wells of a 96-well deep-well plate in 3-fold dilution series. 500 μL hepamised whole blood was then added followed by incubation at 37° C. for 30 min (method A) or 4 h (method B). 100 μL blood was subsequently transferred in triplicate to pre-dispensed 0.5 μL 2 mM calcium ionophore (calcimycin; A23187) in a second 96-well plate. Following incubation at 37° C. for 20 min, the assays were stopped by adding 10 μL of stop solution (100 mM EGTA, pH 7.4) and the plate was transferred to ice. The plate was centrifuged at 3000 rpm at 4° C. for 10 min and […] was transferred to a fresh 96 well plate containing 90 μL pre-dispensed EIA assay buffer (0.1 M phosphate buffer+0.1% BSA). LTB4 was then measured using reagents from a commercial EIA (Cayman Chemicals). LTB4 production was defined as the LTB4 level in the presence of a given concentration of test compound minus the LTB4 level in the presence of 50 nM 5-[[4-[(2S,4R)-4-hydroxy-2-methyl-tetrahydropyran-4-yl]-2-thienyl]sulfanyl]-1-methyl-indolin-2-one. (Preparation of 5-[[4-[(2S,4R)-4-hydroxy-2-methyl-tetrahydropyran-4-yl]-2-thienyl]sulfanyl]-1-methyl-indolin-2-one was described in Org. Process Res. Dev., 2005, 9, 555-569 or EP623614 B1). Inhibition of LTB4 production was defined as the LTB4 level in the presence of a given concentration of test compound expressed as a % of the LTB4 level in the presence of DMSO. IC50 values were determined by plotting % inhibition versus log compound concentration and using a one site dose response model.

FLAP (human ALOX5AP expressed in COS-7 cell membranes), sequence (P20292 whole entry): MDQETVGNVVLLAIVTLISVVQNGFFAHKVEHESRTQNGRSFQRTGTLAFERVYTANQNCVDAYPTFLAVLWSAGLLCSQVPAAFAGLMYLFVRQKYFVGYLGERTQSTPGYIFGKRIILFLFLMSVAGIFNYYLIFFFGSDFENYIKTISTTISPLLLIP

pIC50 [1] | IC50 [2] | Structure (SMILES)
8.41 | 380 nM | Cc1cc(-c2ccc(C(=O)[C@@H]3CCCC[C@H]3C(=O)Nc3c(C)nn4c3C(=O)NCC4)cc2)n[nH]1 [Example 28, (1R,2R)—N-(2-Methyl-4-oxo-4,5,6,7-tetrahydropyrazolo[1,5-a]pyrazin-3-yl)-2-[4-(5-methyl-1H-pyrazol-3-yl)benzoyl]cyclohexanecarboxamide]
8.32 | 330 nM | Cc1nn2c(c1NC(=O)[C@@H]1CCCC[C@H]1C(=O)c1ccc(-c3cc[nH]n3)cc1)C(=O)NCC2 [Example 29, (1R,2R)—N-(2-Methyl-4-oxo-4,5,6,7-tetrahydropyrazolo[1,5-a]pyrazin-3-yl)-2-[4-(1H-pyrazol-5-yl)benzoyl]cyclohexanecarboxamide]
6.85 | 904 nM | Cc1cc(-c2ccc(C(=O)[C@@H]3CCCC[C@H]3C(=O)Nc3nnco3)cc2)[nH]n1 [Example 43, (1R,2R)-2-[4-(3-Methyl-1H-pyrazol-5-yl)benzoyl]-N-(1,3,4-oxadiazol-2-yl)cyclohexanecarboxamide]

More lines, now with the values behind:

Structure (SMILES) | pIC50 [1] | IC50 [2]
CN(C)S(=O)(=O)c1c(NC(=O)[C@@H]2CCCC[C@H]2C(=O)c2ccc(-c3ccn[nH]3)cc2)cnn1C [Example 27, (1R,2R)—N-[5-(Dimethylsulfamoyl)-1-methyl-1H-pyrazol-4-yl]-2-[4-(1H-pyrazol-5-yl)benzoyl]cyclohexanecarboxamide] | 7.19 | 55 nM
O=C(Nc1cn[nH]c1C(F)F)[C@@H]1CCCC[C@H]1C(=O)c1ccc(-c2cc[nH]n2)cc1 [Example 30, (1R,2R)—N-[5-(Difluoromethyl)-1H-pyrazol-4-yl]-2-[4-(1H-pyrazol-3-yl)benzoyl]cyclohexanecarboxamide] | 7.92 | 50 nM

— patent US10183947B2, “Pyrazole derivatives useful as 5-lipoxygenase activating protein (FLAP) inhibitors” (ASTRAZENECA AB, priority 2015, dated 2019)
